The results in this text go back to PubChem BioAssay (NCI).

Among the test systems are HL-60(TB) leukemia; A549 NSCLC; SW-620 colon; LOX IMVI melanoma; DU-145 prostate; MDA-MB-435; HOP-62 NSCLC; ACHN renal; CCRF-CEM leukemia; MDA-MB-231 breast.
Assay in all cases: NCI anticancer screen, dose series, 48 h

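Each compound was tested at five concentrations against cells in 96-well plates for 48 hours. GI50 = concentration required for 50% inhibition of growth. TGI: concentration producing complete growth inhibition.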 Bounds are passed on as bounds.

As for `NS(=O)(=O)c1cccc(-c2ccc3c(NC(=O)C4CC4)n[nH]c3c2)c1`, the GI50 in the assay with HL-60(TB) leukemia is 8.31 µM; in the assay on A549 NSCLC it was more than 25 µM; in the assay with SW-620 colon, more than 15.1 µM; in the assay with LOX IMVI melanoma, 19.4 µM; in the assay with DU-145 prostate it was 14.7 µM; with MDA-MB-435, 5.31 µM. The GI50 in the assay on HOP-62 NSCLC was more than 14.2 µM; in the assay with ACHN renal, more than 25 µM; in the assay with CCRF-CEM leukemia, 8.51 µM; with MDA-MB-231 breast, 25 µM. Moreover, the TGI in the assay on HL-60(TB) leukemia was more than 22.5 µM; in the assay with A549 NSCLC, more than 25 µM; in the assay with SW-620 colon it was more than 25 µM; in the assay with LOX IMVI melanoma it was more than 25 µM; with DU-145 prostate, more than 25 µM; with MDA-MB-435, 15.3 µM. The TGI was 24.7 µM with HOP-62 NSCLC, more than 25 µM in the assay on ACHN renal, more than 25 µM with CCRF-CEM leukemia and more than 25 µM in the assay with MDA-MB-231 breast.
In the case of `COc1cccc(CC(C)=C(c2ccc(OCCCN(C)C)cc2)c2ccc(OCCCN(C)C)cc2)c1`, the GI50 was 0.506 µM in the assay with HL-60(TB) leukemia; 0.557 µM with A549 NSCLC; 0.434 µM in the assay with SW-620 colon; 0.428 µM with LOX IMVI melanoma; 0.694 µM with DU-145 prostate; 0.444 µM in the assay with MDA-MB-435. Further, the GI50 was 0.501 µM with HOP-62 NSCLC, 0.501 µM in the assay with ACHN renal, 0.463 µM with CCRF-CEM leukemia and 0.457 µM in the assay on MDA-MB-231 breast. The TGI stood at 1.02 µM in the assay with HL-60(TB) leukemia; 1.44 µM with A549 NSCLC; 0.867 µM in the assay with SW-620 colon; 0.807 µM with LOX IMVI melanoma; 1.82 µM in the assay with DU-145 prostate; 0.819 µM with MDA-MB-435. Moreover, the TGI in the assay on HOP-62 NSCLC is 1.1 µM; in the assay on ACHN renal, 0.991 µM; in the assay with CCRF-CEM leukemia, 1.13 µM; in the assay with MDA-MB-231 breast it was 0.869 µM.
As for `CC/C=C\C/C=C/C=C1/C(=O)C=C[C@@H]1C/C=C\CCCC(=O)OC`, the GI50 with HL-60(TB) leukemia was 2.24 µM; with A549 NSCLC, 5.71 µM; in the assay with SW-620 colon, 1.11 µM; in the assay with LOX IMVI melanoma, 0.417 µM; in the assay with DU-145 prostate, 4.55 µM; in the assay on MDA-MB-435, 2.05 µM. Besides, the GI50 in the assay with HOP-62 NSCLC was 2.45 µM; in the assay on ACHN renal, 1.97 µM; with CCRF-CEM leukemia, 1.25 µM; in the assay with MDA-MB-231 breast, 3.55 µM. For the same compound, the TGI in the assay on HL-60(TB) leukemia was found to be 12.5 µM; in the assay with A549 NSCLC, 52.6 µM; with SW-620 colon, 7.68 µM; in the assay with LOX IMVI melanoma, 1.79 µM; in the assay with DU-145 prostate, 17.4 µM; in the assay with MDA-MB-435 it was 5.08 µM. In addition, the TGI in the assay on HOP-62 NSCLC is 5.73 µM; with ACHN renal, 3.99 µM; in the assay on CCRF-CEM leukemia, 8.7 µM; with MDA-MB-231 breast it was 11.3 µM.
Regarding `O=C(NN1C(=O)CSC1c1ccc(F)cc1)C(O)c1ccccc1` (stereo not given), the GI50 with HL-60(TB) leukemia was 91.5 µM; with A549 NSCLC, 90.9 µM; in the assay with SW-620 colon it was more than 100 µM; in the assay on LOX IMVI melanoma it was more than 100 µM; in the assay with DU-145 prostate, more than 100 µM; in the assay on MDA-MB-435, more than 100 µM. The GI50 with HOP-62 NSCLC is more than 100 µM; with ACHN renal, 91.5 µM; with CCRF-CEM leukemia, more than 100 µM; in the assay on MDA-MB-231 breast it was 67.6 µM. The TGI in the assay with HL-60(TB) leukemia, in the assay on A549 NSCLC, in the assay with SW-620 colon, in the assay with LOX IMVI melanoma, in the assay with DU-145 prostate and with MDA-MB-435 was more than 100 µM each time. Further, the TGI in the assay on HOP-62 NSCLC, in the assay on ACHN renal, in the assay with CCRF-CEM leukemia and in the assay with MDA-MB-231 breast was more than 100 µM in each case.
Regarding `Nc1n[nH]c2ccc([C@@H]3Nc4cc5[nH]ncc5cc4[C@H]4C5CCC(C5)[C@@H]34)cc12` (stereo not given in full), the GI50 in the assay with HL-60(TB) leukemia was 0.298 µM; in the assay on A549 NSCLC, 0.584 µM; in the assay with SW-620 colon it was 0.392 µM; in the assay with LOX IMVI melanoma it was 0.659 µM; in the assay with DU-145 prostate it was 0.391 µM; in the assay with MDA-MB-435 it was 0.3 µM. The GI50 with HOP-62 NSCLC was 0.689 µM; in the assay with ACHN renal, 0.723 µM; in the assay on CCRF-CEM leukemia it was 0.344 µM; with MDA-MB-231 breast it was 0.764 µM. Further, the TGI in the assay with HL-60(TB) leukemia is 2.24 µM; in the assay on A549 NSCLC it was more than 100 µM; with SW-620 colon, more than 100 µM; in the assay on LOX IMVI melanoma it was 74.8 µM; in the assay on DU-145 prostate, more than 100 µM; in the assay on MDA-MB-435, 6.85 µM. The TGI in the assay on HOP-62 NSCLC was 98 µM; in the assay on ACHN renal, 53.5 µM; in the assay on CCRF-CEM leukemia it was more than 40.4 µM; in the assay with MDA-MB-231 breast, 98.1 µM.
Turning to `CC(=O)O.CC(=O)O.CC(=O)O.CC(=O)O.[Rh].[Rh]`, the GI50 in the assay with HL-60(TB) leukemia was 23.7 µM; with A549 NSCLC, 28.6 µM; with SW-620 colon, 22 µM; in the assay on LOX IMVI melanoma it was 17.2 µM; in the assay on DU-145 prostate, 47.9 µM; in the assay with MDA-MB-435 it was 21.7 µM. Besides, the GI50 is 28.8 µM in the assay with HOP-62 NSCLC, 24.9 µM in the assay on ACHN renal, 5.1 µM with CCRF-CEM leukemia and 48.6 µM in the assay on MDA-MB-231 breast. Also, the TGI with HL-60(TB) leukemia is 50.9 µM; with A549 NSCLC it was more than 100 µM; in the assay with SW-620 colon it was more than 100 µM; with LOX IMVI melanoma it was 61.9 µM; in the assay on DU-145 prostate it was more than 100 µM; in the assay on MDA-MB-435, 55.4 µM. Moreover, the TGI with HOP-62 NSCLC was 84.3 µM; with ACHN renal, more than 100 µM; with CCRF-CEM leukemia, 20.3 µM; in the assay on MDA-MB-231 breast, more than 100 µM.
For the compound `O=C1CSC(c2ccccc2O)N1c1nnc(Cn2ccnc2)o1` (stereo not given), the GI50 was 1.46 µM in the assay on HL-60(TB) leukemia; 35.5 µM in the assay with A549 NSCLC; 5.14 µM with SW-620 colon; 6.58 µM in the assay on LOX IMVI melanoma; 17.5 µM with DU-145 prostate; 2.35 µM in the assay on MDA-MB-435. In addition, the GI50 with HOP-62 NSCLC was 17.6 µM; in the assay with ACHN renal it was 4.96 µM; in the assay with CCRF-CEM leukemia, 4.37 µM; with MDA-MB-231 breast, 6.25 µM. In addition, the TGI in the assay on HL-60(TB) leukemia is more than 100 µM; in the assay on A549 NSCLC, more than 100 µM; in the assay on SW-620 colon it was 32.4 µM; with LOX IMVI melanoma, 24.8 µM; in the assay on DU-145 prostate it was 56.6 µM; in the assay on MDA-MB-435, 8.55 µM. Besides, the TGI in the assay with HOP-62 NSCLC was more than 100 µM; in the assay on ACHN renal it was more than 100 µM; in the assay on CCRF-CEM leukemia, 52.9 µM; in the assay on MDA-MB-231 breast, 71.4 µM.
